Data reported in patent US7662961B2, “N-phenylpyrazole derivatives as pesticides” (Merial Limited, priority 2004, dated 2010).

melting point: 118 °C
Compound: CN(C(=S)N(C)c1c([S+]([O-])C(F)(F)F)c(C#N)nn1-c1c(Cl)cc(C(F)(F)F)cc1Cl)c1c([S+]([O-])C(F)(F)F)c(C#N)nn1-c1c(Cl)cc(C(F)(F)F)cc1Cl (stereo not shown) [Compound 01-05, N,N′-Bis[3-cyano-1-(2,6-dichloro-4-trifluoromethylphenyl)-4-trifluoromethylsulfinylpyrazol-5-yl]-N,N′-dimethylthiourea]
